Assay results: patent US9657288B2, “Connector compound peptide phage display” (BICYCLE THERAPEUTICS LIMITED, priority 2008, dated 2017)
*1 amine or outer side, *2 acyl side, *3 side chain or, on linkers, in order; H or OH if unused. Where a SMILES comes first, the peptide text is derived from it. Bridges are numbered along the chain shown (N, C = ends). TBMB = c1c(C[*:1])cc(C[*:3])cc1C[*:2]

What was measured:
[1] = molecular target: Angiotensin converting enzyme 2 (ACE2) (Homo sapiens, UniProt Q9BYF1); settings: reference 7; read-out: Affinity K1; cited from earlier work
[2] = molecular target: T1, plasma kallikrein (Homo sapiens, UniProt P03952); test: Activity measurement of chemically synthesized human plasma kallikrein inhibitors (residual activity, Z-Phe-Arg-AMC); assay type: biochemical; design: purchased Innovative Research (Southfiled, Mich., USA); settings: for IC50: synthetic peptide after modification with TBMB, human plasma kallikrein 0.1 nM, read-out: IC50 (nM) Bi-cyclic peptide
Experimental: (§1) Recombinant mouse plasma kallikrein from R&D Systems (Minneapolis, Minn., USA) with a signal peptide was proteolytically activated with 0.5 mg/ml thermolysin at 37° C. for 1 hr. […] Inhibitor hydrolysed in one binding loop was generated by incubation of TBMB modified peptide PK15 with human plasma kallikrein at a molar ration of 5:1 for 24 hours at 37° C. and subsequent heat inactivation of the enzyme at 60° C. (30 min). Apparent Ki values were calculated according to the Cheng and Prusoff equation (Cheng, Y. and Prusoff, W. H., Biochem. Pharmacol., 1973).
as §1, with “ratio” for “ration”, “equation.” for “equation (Cheng, Y. and Prusoff, W. H., Biochem. Pharmacol., 1973).”

[3] = molecular target: T2, Pancreatic lipase (Sus scrofa, UniProt P00591); settings: reference 10; read-out: Affinity IC50; cited from earlier work
T2 sequence (P00591 1-450): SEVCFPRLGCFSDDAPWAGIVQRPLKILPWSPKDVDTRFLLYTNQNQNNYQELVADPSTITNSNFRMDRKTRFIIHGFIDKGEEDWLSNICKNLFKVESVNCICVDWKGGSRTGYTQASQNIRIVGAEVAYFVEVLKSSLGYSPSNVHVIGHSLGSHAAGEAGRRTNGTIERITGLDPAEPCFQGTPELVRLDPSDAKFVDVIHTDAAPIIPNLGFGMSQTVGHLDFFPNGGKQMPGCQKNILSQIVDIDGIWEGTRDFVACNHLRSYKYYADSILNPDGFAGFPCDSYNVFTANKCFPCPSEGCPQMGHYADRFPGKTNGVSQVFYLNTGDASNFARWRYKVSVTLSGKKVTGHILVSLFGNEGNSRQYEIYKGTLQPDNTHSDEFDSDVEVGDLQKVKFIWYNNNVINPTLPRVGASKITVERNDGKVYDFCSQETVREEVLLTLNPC

[4] = molecular target: Human kallikrein 2 (Homo sapiens, UniProt P20151); settings: reference 2; read-out: Affinity IC50; cited from earlier work
[5] = molecular target: T3, mouse plasma kallikrein (Mus musculus, UniProt P26262); test: Specificity measurement, mouse plasma kallikrein; assay type: biochemical; settings: highest concentration tested 10 μM
T3 construct: purchased R&D Systems (Minneapolis, Minn., USA)
Experimental: as §1
as §1, with “ratio” for “ration”, “equation.” for “equation (Cheng, Y. and Prusoff, W. H., Biochem. Pharmacol., 1973).”

[6] = molecular target: T4, factor XIa (Homo sapiens, UniProt P03951); test: Specificity measurement, factor XIa; assay type: biochemical; settings: highest concentration tested 10 μM
T4 construct: factor XIa (0.8 nM; Innovative Research, Southfiled, Mich., USA); purchased Innovative Research (Southfiled, Mich., USA)

[7] = molecular target: T5, human thrombin (Homo sapiens, UniProt P00734); test: Specificity measurement, thrombin; assay type: biochemical; settings: highest concentration tested 10 μM
T5 construct: the activity of human thrombin (2 nM; Innovative Research, Southfiled, Mich., USA); purchased Innovative Research (Southfiled, Mich., USA)

[8] = test system: thrombin generation in human plasma; test: Contact activation in human plasma: thrombin activation time triggered by actin; assay type: biochemical; settings: for thrombin formation in human plasma: 50 nM inhibitor concentration
[9] = test system: factor XIIa and plasma kallikrein in human plasma; test: Activation of factor XIIa and plasma kallikrein in human plasma after kaolin (H-D-Pro-Phe-Arg-pNA); assay type: biochemical; settings: for IC50: human plasma, kaolin, read-out: inhibitor concentration required to reduce factor XIIa activity by 50%
Experimental: (§2) Normal human plasma from single donors was purchased from 3H Biomedical (Uppsala, Sweden). The plasma was centrifuged at 1500×g at 20° C. for 15 minutes to obtain platelet-poor plasma (PPP). Aliquots of the PPP were stored in polypropylene tubes at −80° C. […] Activation of factor XIIa and human plasma kallikrein were measured as follows. 2 μg kaolin was added to the plasma samples, mixed well and incubated for 20 minutes at 37° C. The samples were diluted 250-fold in 50 mM Tris-Cl pH 7.8, 150 mM NaCl. Plasma kallikrein-like activity was measured with the chromogenic substrate H-D-Pro-Phe-Arg-pNA (100 μM; Bachem, Bubendorf, Switzerland) using an absorption plate reader (absorption at […]; Molecular Devices, Sunnyvale, Calif., USA).
as §2, with “was” for “and human plasma kallikrein were”, “μg of” for “μg”, “H-D-Pro-Phe-Arg (SEQ ID No. 37)-pNA” for “H-D-Pro-Phe-Arg-pNA”, “USA). The same chromogenic substrate is also recognized and modified by plasma kallikrein.” for “USA).”

[10] = molecular target: T1, plasma kallikrein; test: Hydrolysis of the inhibitor on incubation with human plasma kallikrein; assay type: in vitro ADME; design: purchased Innovative Research (Southfiled, Mich., USA)
Experimental: as §1
as §1, with “ratio” for “ration”, “equation.” for “equation (Cheng, Y. and Prusoff, W. H., Biochem. Pharmacol., 1973).”

[11] = molecular target: Beta-lactamase (Stenotrophomonas maltophilia, UniProt P52700); settings: reference 11; read-out: Affinity IC50; cited from earlier work
[12] = molecular target: TF-fVII (Homo sapiens, UniProt P08709); settings: reference 6; read-out: Affinity IC50; cited from earlier work
[13] = molecular target: Chymotrypsin (Bos taurus, UniProt P00766); settings: reference 5; read-out: Affinity K1; cited from earlier work
[14] = molecular target: DNase II; settings: reference 12; read-out: Affinity K1; cited from earlier work
[15] = molecular target: Urease (Helicobacter pylori, UniProt P14916+P69996); settings: read-out: Affinity IC50; reference 9; cited from earlier work
[16] = molecular target: Urokinase-type plasminogen activator (uPA) (Mus musculus, UniProt P06869); settings: reference 4; read-out: Affinity K1; cited from earlier work
[17] = molecular target: Urokinase-type plasminogen activator (uPA) (Homo sapiens, UniProt P00749); settings: reference 3; read-out: Affinity K1; cited from earlier work
[18] = molecular target: ErbB-2 (Homo sapiens, UniProt P04626); settings: reference 8; read-out: Affinity K1; cited from earlier work
[19] = in vivo; cited from earlier work

T1 sequence (P03952 391-638 limits assumed): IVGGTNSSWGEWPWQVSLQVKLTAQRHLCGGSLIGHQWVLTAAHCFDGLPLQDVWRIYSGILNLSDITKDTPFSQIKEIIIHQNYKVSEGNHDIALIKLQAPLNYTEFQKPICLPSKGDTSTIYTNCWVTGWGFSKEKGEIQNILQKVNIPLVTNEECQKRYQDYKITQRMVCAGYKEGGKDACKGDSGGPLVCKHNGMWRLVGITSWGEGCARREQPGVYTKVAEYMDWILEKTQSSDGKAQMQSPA
T1 sequence (P03952 20-390 partner limits assumed): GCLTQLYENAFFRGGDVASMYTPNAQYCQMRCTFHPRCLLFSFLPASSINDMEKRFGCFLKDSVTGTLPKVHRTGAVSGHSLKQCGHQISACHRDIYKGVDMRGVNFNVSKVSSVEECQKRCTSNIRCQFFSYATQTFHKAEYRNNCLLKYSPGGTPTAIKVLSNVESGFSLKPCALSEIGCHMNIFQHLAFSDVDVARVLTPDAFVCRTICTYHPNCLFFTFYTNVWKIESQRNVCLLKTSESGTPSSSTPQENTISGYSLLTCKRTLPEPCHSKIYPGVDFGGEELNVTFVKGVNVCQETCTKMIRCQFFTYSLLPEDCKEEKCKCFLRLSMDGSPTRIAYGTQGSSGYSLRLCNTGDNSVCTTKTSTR
Sequence of Beta-lactamase (P52700 34-290): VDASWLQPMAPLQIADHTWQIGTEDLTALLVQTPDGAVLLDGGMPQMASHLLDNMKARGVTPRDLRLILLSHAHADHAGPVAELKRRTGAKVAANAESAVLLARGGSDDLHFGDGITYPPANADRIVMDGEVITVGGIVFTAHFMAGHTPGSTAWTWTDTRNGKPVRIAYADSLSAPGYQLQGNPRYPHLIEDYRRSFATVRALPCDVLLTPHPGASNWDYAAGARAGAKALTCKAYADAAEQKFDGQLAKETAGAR
T4 sequence (P03951 388-625 limits assumed): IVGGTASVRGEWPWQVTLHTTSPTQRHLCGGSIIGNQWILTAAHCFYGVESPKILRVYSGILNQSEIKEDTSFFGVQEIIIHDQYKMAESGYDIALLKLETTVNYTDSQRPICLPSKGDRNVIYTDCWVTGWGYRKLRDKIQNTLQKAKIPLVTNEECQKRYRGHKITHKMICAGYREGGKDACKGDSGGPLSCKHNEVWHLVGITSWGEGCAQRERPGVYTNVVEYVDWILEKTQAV
T4 sequence (P03951 19-387 partner limits assumed): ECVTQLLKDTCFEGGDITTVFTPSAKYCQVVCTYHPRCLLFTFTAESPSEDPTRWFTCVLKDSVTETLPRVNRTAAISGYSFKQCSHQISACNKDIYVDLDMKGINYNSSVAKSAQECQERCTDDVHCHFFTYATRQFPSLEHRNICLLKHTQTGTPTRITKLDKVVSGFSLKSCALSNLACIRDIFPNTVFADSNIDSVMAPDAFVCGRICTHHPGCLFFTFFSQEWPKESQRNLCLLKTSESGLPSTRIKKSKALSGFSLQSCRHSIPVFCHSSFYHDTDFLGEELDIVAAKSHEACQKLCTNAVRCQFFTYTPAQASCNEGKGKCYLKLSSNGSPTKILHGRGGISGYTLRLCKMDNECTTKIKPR
Sequence of Human kallikrein 2 (P20151 25-261): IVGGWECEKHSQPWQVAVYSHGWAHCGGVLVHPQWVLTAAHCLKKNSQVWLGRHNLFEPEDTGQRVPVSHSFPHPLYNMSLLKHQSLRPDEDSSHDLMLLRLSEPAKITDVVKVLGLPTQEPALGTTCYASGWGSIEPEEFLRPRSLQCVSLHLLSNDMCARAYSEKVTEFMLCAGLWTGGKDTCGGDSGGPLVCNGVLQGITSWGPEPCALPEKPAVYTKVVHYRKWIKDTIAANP
Sequence of Urease (P69996 whole entry): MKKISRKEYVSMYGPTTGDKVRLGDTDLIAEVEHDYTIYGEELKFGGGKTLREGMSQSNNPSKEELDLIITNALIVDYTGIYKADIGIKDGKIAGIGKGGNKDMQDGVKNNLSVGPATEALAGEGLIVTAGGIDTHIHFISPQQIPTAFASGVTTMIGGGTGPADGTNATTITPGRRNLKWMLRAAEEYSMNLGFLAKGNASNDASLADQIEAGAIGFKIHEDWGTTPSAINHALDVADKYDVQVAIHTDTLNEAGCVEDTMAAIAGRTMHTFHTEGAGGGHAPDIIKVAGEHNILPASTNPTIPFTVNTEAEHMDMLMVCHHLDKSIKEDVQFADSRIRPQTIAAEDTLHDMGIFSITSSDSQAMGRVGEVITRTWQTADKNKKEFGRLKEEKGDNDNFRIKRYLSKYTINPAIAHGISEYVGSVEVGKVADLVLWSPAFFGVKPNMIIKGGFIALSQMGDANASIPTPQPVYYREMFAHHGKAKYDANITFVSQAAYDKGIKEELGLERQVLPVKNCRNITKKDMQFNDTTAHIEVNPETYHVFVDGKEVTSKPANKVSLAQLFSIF
Sequence of Urease (P14916 whole entry): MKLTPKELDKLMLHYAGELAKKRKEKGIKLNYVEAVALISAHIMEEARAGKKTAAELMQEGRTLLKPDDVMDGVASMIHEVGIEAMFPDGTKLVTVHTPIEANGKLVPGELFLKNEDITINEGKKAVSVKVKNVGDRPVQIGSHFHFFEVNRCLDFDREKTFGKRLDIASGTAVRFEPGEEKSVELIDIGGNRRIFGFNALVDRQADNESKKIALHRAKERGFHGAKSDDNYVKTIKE
Sequence of Urokinase-type plasminogen activator (uPA) (Mus musculus, UniProt P06869) (P06869 21-433): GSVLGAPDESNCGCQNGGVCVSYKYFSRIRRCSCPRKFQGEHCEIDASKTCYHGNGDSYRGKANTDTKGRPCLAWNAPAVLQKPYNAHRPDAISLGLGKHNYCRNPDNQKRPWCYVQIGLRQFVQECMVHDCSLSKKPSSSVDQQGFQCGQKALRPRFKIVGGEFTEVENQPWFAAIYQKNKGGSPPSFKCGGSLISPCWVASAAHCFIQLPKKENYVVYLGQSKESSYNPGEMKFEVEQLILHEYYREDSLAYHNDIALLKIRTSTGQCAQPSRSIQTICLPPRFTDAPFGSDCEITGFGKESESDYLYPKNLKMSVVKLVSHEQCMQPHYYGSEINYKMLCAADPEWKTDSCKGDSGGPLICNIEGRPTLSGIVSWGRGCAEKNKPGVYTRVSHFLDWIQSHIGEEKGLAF
T3 sequence (P26262 391-638 limits assumed): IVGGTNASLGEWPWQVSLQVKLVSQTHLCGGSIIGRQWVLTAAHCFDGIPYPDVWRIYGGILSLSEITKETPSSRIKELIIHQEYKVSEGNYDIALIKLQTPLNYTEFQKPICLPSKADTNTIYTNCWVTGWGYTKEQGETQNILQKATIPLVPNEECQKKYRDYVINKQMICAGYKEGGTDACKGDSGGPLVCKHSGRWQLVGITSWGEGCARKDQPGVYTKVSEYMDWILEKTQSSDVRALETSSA
T3 sequence (P26262 20-390 partner limits assumed): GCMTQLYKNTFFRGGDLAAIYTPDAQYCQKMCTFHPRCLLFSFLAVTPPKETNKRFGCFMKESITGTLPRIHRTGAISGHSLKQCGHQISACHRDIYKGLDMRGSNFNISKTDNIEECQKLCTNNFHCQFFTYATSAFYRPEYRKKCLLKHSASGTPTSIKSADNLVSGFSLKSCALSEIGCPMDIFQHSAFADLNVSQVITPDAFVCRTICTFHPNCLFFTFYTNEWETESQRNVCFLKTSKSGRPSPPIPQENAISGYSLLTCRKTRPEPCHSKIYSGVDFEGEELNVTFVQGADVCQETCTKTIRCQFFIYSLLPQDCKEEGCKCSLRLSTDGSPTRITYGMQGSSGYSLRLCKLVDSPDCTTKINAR
Sequence of TF-fVII (P08709 213-466 limits assumed): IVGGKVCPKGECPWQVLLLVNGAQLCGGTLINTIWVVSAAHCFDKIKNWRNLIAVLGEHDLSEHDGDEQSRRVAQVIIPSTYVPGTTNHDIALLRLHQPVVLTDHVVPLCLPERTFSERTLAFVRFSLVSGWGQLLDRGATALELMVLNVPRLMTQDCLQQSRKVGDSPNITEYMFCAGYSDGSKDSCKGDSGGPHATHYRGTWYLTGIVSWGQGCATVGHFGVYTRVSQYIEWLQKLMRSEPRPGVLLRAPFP
Sequence of TF-fVII (P08709 61-212 partner limits assumed): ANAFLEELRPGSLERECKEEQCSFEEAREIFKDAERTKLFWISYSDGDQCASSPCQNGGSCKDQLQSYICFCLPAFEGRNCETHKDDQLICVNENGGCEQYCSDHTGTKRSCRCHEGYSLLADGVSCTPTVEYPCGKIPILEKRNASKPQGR
Sequence of TF-fVII (P13726 33-295 partner): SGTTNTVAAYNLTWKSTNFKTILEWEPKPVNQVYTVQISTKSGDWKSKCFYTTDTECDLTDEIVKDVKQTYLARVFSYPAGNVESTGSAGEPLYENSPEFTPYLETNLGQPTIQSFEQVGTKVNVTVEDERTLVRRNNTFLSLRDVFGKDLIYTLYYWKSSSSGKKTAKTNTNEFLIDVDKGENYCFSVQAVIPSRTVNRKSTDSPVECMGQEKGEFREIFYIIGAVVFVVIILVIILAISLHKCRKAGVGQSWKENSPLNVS

GDYSHCSPLRYYPWWKCTYPDP
Ki [1]: 2.8 nM

CSCC[C@@H]1NC(=O)[C@H](CC(C)C)NC(=O)[C@H](CC(=O)O)NC(=O)[C@H](CCC(=O)O)NC(=O)[C@H](Cc2ccc(O)cc2)NC(=O)[C@@H]2CSCc3cc(cc(c3)CSC[C@@H](C(=O)NCC(N)=O)NC(=O)[C@H](Cc3c[nH]c4ccccc34)NC1=O)CSC[C@H](NC(=O)[C@H](C)N)C(=O)N[C@@H](C)C(=O)N1CCC[C@H]1C(=O)N[C@@H](Cc1c[nH]c3ccccc13)C(=O)N[C@@H](CCCNC(=N)N)C(=O)N[C@@H]([C@@H](C)O)C(=O)N[C@@H](C)C(=O)N2 [PK6] (H-ACAPWRTACYEDLMWCG-NH2; linker 2-9-16 via TBMB)
IC50 [2]: 21.2 nM

CQPHPGQTC
IC50 [3]: 16 µM

SRFKVWWAAF
IC50 [4]: 3.4 µM

CC(C)C[C@@H]1NC(=O)[C@H](C)NC(=O)[C@H](CCC(=O)O)NC(=O)[C@H](CC(=O)O)NC(=O)[C@H](C)NC(=O)[C@@H]2CCCN2C(=O)[C@@H]2CSCc3cc(cc(c3)CSC[C@@H](C(=O)NCC(N)=O)NC1=O)CSC[C@H](NC(=O)[C@H](C)N)C(=O)N[C@@H](CO)C(=O)N[C@@H](CC(=O)O)C(=O)N[C@@H](CCCNC(=N)N)C(=O)N[C@@H](Cc1ccccc1)C(=O)N[C@@H](CCCNC(=N)N)C(=O)N[C@@H](CC(N)=O)C(=O)N2 [PK15] (H-ACSDRFRNCPADEALCG-NH2; linker 2-9-16 via TBMB (inferred))
inhibition of mouse plasma kallikrein [5]: did not inhibit | inhibition of human factor XIa [6]: did not inhibit | inhibition of human thrombin [7]: did not inhibit | thrombin formation in human plasma [8]: delayed thrombin formation | lag time of thrombin generation compared to control sample (FIG. 8) ([8]; 5, 50, 500 or 5000 nM): dose-dependent prolongation of lag time | interruption of intrinsic coagulation pathway / contact activation in human plasma ex vivo [9]: efficiently interrupted the intrinsic coagulation pathway | activation of factor XIIa and plasma kallikrein in human plasma ([9]; 5 μM, plasma of three donors): essentially be suppressed | IC50 [9]: 160 nM | Ki [2]: 1.5 nM | IC50 [2]: 1.7 nM | cleavage of a peptide bond on incubation with kallikrein ([10]; 24 h at 37° C.): 90% | state after prolonged incubation with human plasma kallikrein ([10]; cleaved in one of the loops): remained intact and active

CVHSPNREC
IC50 [11]: 9 µM

CC[C@H](C)[C@@H]1NC(=O)[C@H](CCC(=O)O)NC(=O)[C@H]([C@@H](C)CC)NC(=O)[C@@H]2CCCN2C(=O)[C@@H]2CSCc3cc(cc(c3)CSC[C@@H](C(=O)NCC(N)=O)NC(=O)[C@@H]3CCCN3C(=O)[C@H](Cc3ccccc3)NC1=O)CSC[C@H](NC(=O)[C@H](C)N)C(=O)N[C@@H](CO)C(=O)N[C@@H]([C@@H](C)O)C(=O)N[C@@H](CCC(=O)O)C(=O)N[C@@H](CCCNC(=N)N)C(=O)N[C@@H](CCCNC(=N)N)C(=O)N[C@@H](Cc1ccc(O)cc1)C(=O)N2 [PK4] (H-ACSTERRYCPIEIFPCG-NH2; linker 2-9-16 via TBMB)
IC50 [2]: 33 nM

CC(C)[C@@H]1NC(=O)[C@H](CCCNC(=N)N)NC(=O)[C@@H]2CSCc3cc(cc(c3)CSC[C@@H](C(=O)NCC(N)=O)NC(=O)[C@@H]3CCCN3C(=O)[C@H]([C@@H](C)O)NC(=O)[C@H](Cc3c[nH]c4ccccc34)NC(=O)[C@H](CC(N)=O)NC1=O)CSC[C@H](NC(=O)[C@H](C)N)C(=O)NCC(=O)N[C@@H]([C@@H](C)O)C(=O)NCC(=O)N[C@@H](CCC(=O)O)C(=O)NCC(=O)N[C@@H](CCCNC(=N)N)C(=O)N2 [PK13] (H-ACGTGEGRCRVNWTPCG-NH2; linker 2-9-16 via TBMB)
IC50 [2]: 39.1 nM

EEWEVLCWTWETCER
IC50 [12]: 1.5 nM

CCFSWRCRC
Ki [13]: 1000 nM

CLRLLQWFLWAC
Ki [14]: 200 nM

YDFYWW
IC50 [15]: 30 µM

CPAYSRYLDC
Ki [16]: 400 nM

CSWRGLENHRMC
Ki [17]: 6.7 µM

KCCYSL
Ki [18]: 30 µM

aprotinin
thrombin formation in human plasma [8]: had no effect | lag time of thrombin activation ([8]; 5 μM inhibitor concentration): more prolonged by aprotinin than by the small molecule inhibitor | IC50 [9]: 5000 nM | adverse effects [19]: anaphylaxis and renal toxicity
